The values below come from ChEMBL document CHEMBL1132747, “Development of plasmin and plasma kallikrein selective inhibitors and their effect on M1 (melanoma) and HT29 cell lines” (Bioorg Med Chem Lett, 2000).

For orientation: pIC50 means the IC50 on a negative log10 scale, so that one unit is a factor of ten.

Assay [1] can be described thus: Inhibitory activity of compound was evaluated against plasmin-fibrin (Fn).
Assay [2] deals with T1, Plasminogen (Homo sapiens, UniProt P00747). In words: Inhibitory activity of compound was evaluated against plasmin.
T1 sequence (P00747 97-580 limits assumed): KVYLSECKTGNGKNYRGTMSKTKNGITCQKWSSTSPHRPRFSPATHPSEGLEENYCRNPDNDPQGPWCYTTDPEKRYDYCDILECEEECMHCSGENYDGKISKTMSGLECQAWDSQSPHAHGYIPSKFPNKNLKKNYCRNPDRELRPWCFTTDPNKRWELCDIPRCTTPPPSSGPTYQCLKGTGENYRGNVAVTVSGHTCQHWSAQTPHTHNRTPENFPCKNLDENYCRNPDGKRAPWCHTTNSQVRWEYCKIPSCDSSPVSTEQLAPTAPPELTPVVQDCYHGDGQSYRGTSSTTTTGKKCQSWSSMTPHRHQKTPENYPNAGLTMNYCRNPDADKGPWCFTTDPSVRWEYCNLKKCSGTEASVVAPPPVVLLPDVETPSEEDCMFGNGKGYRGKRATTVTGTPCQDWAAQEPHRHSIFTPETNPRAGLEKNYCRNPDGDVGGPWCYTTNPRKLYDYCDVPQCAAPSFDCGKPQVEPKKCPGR
T1 sequence (P00747 581-810 limits assumed): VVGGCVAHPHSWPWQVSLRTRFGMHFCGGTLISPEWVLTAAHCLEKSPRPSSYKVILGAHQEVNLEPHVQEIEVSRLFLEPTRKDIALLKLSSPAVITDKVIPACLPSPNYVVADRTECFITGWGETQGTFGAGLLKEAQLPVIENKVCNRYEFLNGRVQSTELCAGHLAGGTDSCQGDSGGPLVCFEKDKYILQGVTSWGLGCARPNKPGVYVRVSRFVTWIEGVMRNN
Assay [3] in a line: Inhibitory activity of compound was evaluated against thrombin-S-2238.
The nature of assay [4]: Inhibitory activity of compound was evaluated against thrombin-fibrinogen (Fg).
A short description of assay [5]: Inhibitory activity of compound was evaluated against plasma kallikrein-S-2302. In kind it is cell-free.
Assay [6] in a line: Inhibitory activity of compound was evaluated against urokinase-S-2444. Conditions: for pIC50: read-out: IC50.
Assay [7] addresses T1, Plasminogen. Kind of assay: Inhibitory activity of compound was evaluated against plasmin; not detectable.
A short description of assay [8]: Inhibitory activity of compound was evaluated against thrombin-S-2238; not detectable.
Assay [9] in a line: Inhibitory activity of compound was evaluated against thrombin-fibrinogen (Fg); not detectable.
Assay [10] in a line: Inhibitory activity of compound was evaluated against plasma kallikrein-S-2302; not detectable. In kind it is cell-free.
A short description of assay [11]: Inhibitory activity of compound was evaluated against urokinase-S-2444; not detectable.
Assay [12] in a line: Inhibitory activity of compound was evaluated against plasmin-fibrin (Fn); not detectable.

pIC50: −log10 of the molar value.

As for `CCCCCCCCOC(=O)[C@H]1CC[C@H](CNC(=O)C(Cc2ccc(OC(=O)OCc3ccccc3Br)cc2)NC(=O)[C@H]2CC[C@H](CN)CC2)CC1` (some centres not stated), the pIC50 in [1] was 6.25; in assay [2], 5.60; in assay [3] it was under 4.30; in [4] it was under 5.00; in [5], 4.35; in assay [6], under 4.30.

For the compound `CC(=O)c1ccc(NC(=O)C(Cc2ccc(OC(=O)OCc3ccccc3Br)cc2)NC(=O)[C@H]2CC[C@H](CN)CC2)cc1` (some centres not stated), the figures for the pIC50 in assay [2] and in [5] were 6.64 and 6.43, respectively.

As for `Cc1nc(C)c(CCCNC(=O)C(Cc2ccc(OC(=O)OCc3ccccc3Br)cc2)NC(=O)[C@H]2CC[C@H](CN)CC2)nc1O` (some centres not stated), the pIC50 in assay [7] (read-out: IC50) is 6.13; in assay [8] (read-out: IC50), 3.31; in assay [1] it was 6.41; in assay [9] (read-out: IC50), under 3.60; in [10] (read-out: IC50), 4.44; in assay [6], 4.27.

`CCCCCCCCNC(=O)C(Cc1ccc(OC(=O)OCc2ccccc2Br)cc1)NC(=O)[C@H]1CC[C@H](CN)CC1` (some centres not stated): the pIC50 in [1] is 6.64; in [2] it was 6.10; in assay [3], under 4.30; in assay [4] it was under 4.60; in assay [5] it was 4.80; in assay [6], under 4.30.

Take `CC(C)CCNC(=O)C(Cc1ccc(OC(=O)OCc2ccccc2Br)cc1)NC(=O)[C@H]1CC[C@H](CN)CC1` (some centres not stated): the pIC50 in [1] is 7.25; in [2], 6.34; in [3] it was 4.15; in assay [4], under 4.00; in assay [5], 5.68; in assay [6], 3.59.

Turning to `CCCCCCCCNC(=O)C(Cc1ccc(OCc2ccncc2)cc1)NC(=O)[C@H]1CC[C@H](CN)CC1` (some centres not stated), the pIC50 was 6.44 in [1]; 6.28 in [2]; under 3.40 in assay [3]; under 4.00 in assay [4]; 4.52 in [5]; 5.28 in [6].

On to `NC[C@H]1CC[C@H](C(=O)NC(Cc2ccc(Oc3ncccn3)cc2)C(=O)Nc2cccc(C(=O)O)c2)CC1` (some centres not stated), for which the pIC50 is 4.54 in assay [1]; 4.49 in [2]; under 3.00 in assay [3]; under 3.00 in assay [4]; 6.15 in [5]; 3.19 in [6].

`NC[C@H]1CC[C@H](C(=O)NC(Cc2ccccc2)C(=O)Nc2ccc(CC(=O)O)cc2)CC1` (some centres not stated): the pIC50 in [1] is 3.46; in assay [2], 3.21; in assay [3], under 3.00; in [4], under 3.00; in assay [5], 5.89; in assay [6], 3.46.

`Cc1nc(Cc2ccccc2)c(O)nc1Cc1ccccc1`: the IC50 result in assay [7], in assay [8], in assay [11], in assay [12], in assay [9] and in [10] was “Not detectable” throughout.

Regarding `Cc1nc(Cc2ccccc2)c(O)nc1CCCCNC(=O)c1cccs1`, the IC50 entry in assay [7], in assay [8], in [11], in [12], in [9] and in assay [10] was “Not detectable” each time.

In the case of `Cc1nc(CCC(=O)OCc2ccccc2)c(O)nc1CCCCNC(=O)OCc1ccccc1`, the IC50 entry in assay [7], in assay [8], in [12], in assay [9], in assay [10] and in [6] was “Not detectable” in each case.
